Reference: article PMC8636942, “Ab initio Designed Antimicrobial Peptides Against Gram-Negative Bacteria” (Frontiers in Microbiology, 2021)
pEC50: −log10 of the molar value. Converted amounts (≈) assume the structure as drawn. Read-outs that look alike come from different tables or passages of the source. No end group written: not given here.

What was measured:
human red blood cells = assay: Hemolysis assay; type: cell-based; conditions: 2% human RBCs (K2EDTA blood) in PBS, 1 h, 37°C
[1] = test system: E. coli ATCC 51659 (MDR, O157:H7); conditions: Mueller Hinton Broth; for Minimum inhibitory concentration (MIC): MDR strain, CLSI broth microdilution, 5 × 10^4 CFU/well, OD600, <10% of untreated control = clear, n = 3; for Minimum inhibitory concentration (MIC) / Antibacterial screening: growth inhibition / bactericidal activity: 16–20 h, 37°C; for Antibacterial screening: growth inhibition / bactericidal activity: 5 × 10^5 CFU/mL, OD600, n = 3
E. coli ATCC 51659 = type: cell-based, Escherichia coli
Method: (§1) The antimicrobial activity of the PHNX peptides (China Peptides custom synthesis) and LL-37 (AnaSpec 61302) against bacteria was determined as previously described ([Barksdale et al., 2016], [2017]). Briefly, 1 × 10^5 CFU per well of bacteria were incubated with different peptide concentrations (n = 3) in a 50-μl solution of 10 mM sodium phosphate buffer (3 h, 37°C). Serial dilutions were then prepared in 1X Dulbecco’s PBS and 8 μl of each dilution was spotted in triplicate on Tryptic Soy Agar plates, which were incubated (37°C, 24 h) and CFUs were counted ([Barksdale et al., 2016], [2017]). Bacterial survival at each peptide concentration was calculated based on the ratio of the number of colonies on each experimental plate and the average number of colonies observed for assay cultures lacking peptide. The peptide concentration required to kill 50% of the viable bacteria in the assay cultures (EC50) was determined by plotting percent survival as a function of the log of peptide concentration (log μg/ml) and fitting the data using GraphPad Prism 6 (GraphPad Software Inc., San Diego, CA, United States). For the purpose of graphing, samples that had no peptide (0 μg/ml) are plotted at 1 × 10^–7 μg/ml peptide. EC50 values were determined by fitting the data from the antimicrobial assays to a standard sigmoidal dose–response curve. […] Wells containing only 10 mM sodium phosphate buffer were used as sterility control.

S. aureus ATCC 33592 = type: cell-based, Staphylococcus aureus
Method: as §1

[2] = test system: E. coli ATCC 4157 (antibiotic susceptible); conditions: Mueller Hinton Broth; for Minimum inhibitory concentration (MIC): antibiotic susceptible strain, CLSI broth microdilution, 5 × 10^4 CFU/well, OD600, n = 3
[3] = test system: S. aureus ATCC 33592 (MDR, MRSA); conditions: Mueller Hinton Broth, 16–20 h, 37°C; for Minimum inhibitory concentration (MIC): MDR (MRSA) strain, CLSI broth microdilution, 5 × 10^4 CFU/well, OD600, n = 3; for Antibacterial screening: growth inhibition / bactericidal activity: peptide 100 μg/ml, 5 × 10^5 CFU/mL, OD600, n = 3
[4] = test system: S. aureus ATCC BAA-1718 (antibiotic susceptible); conditions: antibiotic susceptible strain; CLSI broth microdilution, Mueller Hinton Broth, 5 × 10^4 CFU/well, 16–20 h, 37°C, OD600; n = 3
[5] = peptide 100 μg/ml, OD540, DI water = full lysis, n = 3
[6] = same EC50 presented in micromolar units, 10 mM sodium phosphate buffer, 3 h, 37°C, read-out: EC50

| Molecule | Minimum inhibitory concentration (MIC) [1] [µg/mL] | pEC50 (E. coli ATCC 51659; ATCC 51659, 3 h) | Half maximal effective concentration (EC50) (E. coli ATCC 51659; ATCC 51659, 3 h) [µg/mL] | pEC50 (S. aureus ATCC 33592; ATCC 33592, 3 h) | also measured |
| --- | --- | --- | --- | --- | --- |
| CC[C@H](C)[C@H](NC(=O)[C@H](CCCCN)NC(=O)[C@H](CCC(=O)O)NC(=O)[C@H](CCCCN)NC(=O)[C@H](CO)NC(=O)[C@H](CCCCN)NC(=O)[C@H](CCCNC(=N)N)NC(=O)[C@H](Cc1ccccc1)NC(=O)[C@H](Cc1ccccc1)NC(=O)[C@H](CC(=O)O)NC(=O)CNC(=O)[C@H](CC(C)C)NC(=O)[C@@H](N)CC(C)C)C(=O)NCC(=O)N[C@@H](CCCCN)C(=O)N[C@@H](CCC(=O)O)C(=O)N[C@@H](Cc1ccccc1)C(=O)N[C@@H](CCCCN)C(=O)N[C@@H](CCCNC(=N)N)C(=O)N[C@H](C(=O)N[C@H](C(=O)N[C@@H](CCC(N)=O)C(=O)N[C@@H](CCCNC(=N)N)C(=O)N[C@H](C(=O)N[C@@H](CCCCN)C(=O)N[C@@H](CC(=O)O)C(=O)N[C@@H](Cc1ccccc1)C(=O)N[C@@H](CC(C)C)C(=O)N[C@@H](CCCNC(=N)N)C(=O)N[C@@H](CC(N)=O)C(=O)N[C@@H](CC(C)C)C(=O)N[C@H](C(=O)N1CCC[C@H]1C(=O)N[C@@H](CCCNC(=N)N)C(=O)N[C@H](C(=O)N[C@@H](CCC(=O)O)C(=O)N[C@@H](CO)C(=O)O)[C@@H](C)O)C(C)C)[C@@H](C)CC)C(C)C)[C@@H](C)CC [LL-37] | 32 (≈ 7.12 µM) | – | – | – | Hemolysis (human red blood cells; peptide 1 μg/ml, OD540, n = 3): negligible hemolysis; Hemolysis (human red blood cells; [5]): approximately 40% |
| FGKLLKLGKGLGG [PHNX-2] | >100 | < 5.11 | – | – | pEC50 (S. aureus ATCC 33592; [6]): < 5.11 |
| FGKLLKLGKGLKG [PHNX-3] | >100 | – | >10 | – | pEC50 (S. aureus ATCC 33592; [6]): < 5.13 |
| FIGAIASYLKKFR [PHNX-6] | >100 | 5.76 | ≤ 10 | 5.28 | – |
| FLIKILKGGKGGK [PHNX-5] | >100 | 5.44 | ≤ 10 | < 5.13 | – |
| FLLKIVALLKKKLL [PHNX-1] | – | 7.10 | ≤ 10 | 6.85 | – |
| FLLKLGLGKKKLL [PHNX-4] | – | 5.70 | ≤ 10 | 5.48 | – |
| GLMDTVKNAAKNLAGQLLD KIKCKITG (disulfide) [PHNX-8] | 64 | – | – | – | Minimum inhibitory concentration (MIC) ([2]; 16–20 h, 37°C): 32 µg/mL; Antibacterial screening: growth inhibition / bactericidal activity ([2]; peptide 100 μg/ml, 5 × 10^5 CFU/mL, 16–20 h, 37°C, OD600, n = 3): showed activity; Antibacterial screening: bacterial survival ([2]; peptide 100 μg/ml, Figure 3A): ~0%; pEC50 (E. coli ATCC 51659; [6]): 7.70; Half maximal effective concentration (EC50) (S. aureus ATCC 33592; low salt: 10 mM sodium phosphate buffer, 1 × 10^5 CFU per well, 3 h, 37°C, CFU counting, sigmoidal fit, n = 3): 3.31 µg/mL; pEC50 (S. aureus ATCC 33592; [6]): 5.95; Antibacterial screening: growth inhibition / bactericidal activity ([1]; peptide 100 μg/ml): showed activity; Antibacterial screening: bacterial survival ([1]; peptide 100 μg/ml, Figure 3C): ~0% |
| GVVDIIKGAGKKFAKGLAGKIANKK [PHNX-7] | – | 7.70 | ≤ 10 | 6.08 | – |
| KRFKKFFRKLKKSVKKRAKEFFKKPRVIGVSIPF [BF-CATH, reference compound] | 8 | – | – | – | Minimum inhibitory concentration (MIC) ([2]; 16–20 h, 37°C): 4 µg/mL; Minimum inhibitory concentration (MIC) [3]: 64 µg/mL; Antibacterial screening: growth inhibition / bactericidal activity [3]: 100%; Antibacterial screening: growth inhibition / bactericidal activity ([1]; peptide 100 μg/ml): 100% |
| VRLIVAVRIWRR-NH2 (C-terminus assumed) [IDR-1018] | ~16 | – | – | – | Hemolysis (human red blood cells; peptide 1 μg/ml, OD540, n = 3): negligible hemolysis; Hemolysis (human red blood cells; peptide 10 μg/ml, OD540, n = 3): ~10%; Hemolysis (human red blood cells; [5]): approximately 40%; Minimum inhibitory concentration (MIC) [3]: ~16 µg/mL; Antibacterial screening: growth inhibition / bactericidal activity [3]: 100%; Minimum inhibitory concentration (MIC) [4]: ~16 µg/mL; Antibacterial screening: growth inhibition / bactericidal activity ([1]; peptide 100 μg/ml): 100% |
